Like-named read-outs stand apart in the source and are kept apart here.

A word on the CL/F: it is clearance divided by bioavailability, as obtained after extravascular dosing. In general, AUC(0-inf) refers to the area under the concentration-time curve extrapolated to infinity. Read a high AUC(0-inf) as high exposure. As usually defined, the AUC(0-t) is exposure summed from dosing to a finite time, without extrapolation to infinity. Higher therefore signals more exposure. In general, Cmax refers to the peak of the concentration-time curve. As a reminder, the Tmax is the time from dosing to the highest level. By half-life is commonly meant the time needed for the level to fall by half in the phase considered. Read a high half-life as slow loss.

The nature of data set [1]: Attempt to dissolve pure CBD in beverages. It counts as physicochemical. As to conditions: 2.7 mg in 25 ml of beverage. How it is done:
Samples of still water (Mei Eden bottled water), carbonated water (made by Tempo Soda), alcoholic lager beer (Carlsberg) and orange juice (made by Primor) were prepared using each of CBD-Whey and Whey only. 25 ml of beverage was prepared for each sample, and 45 mg of CBD-Whey (which contains 2.7 mg of CBD). […] The study continued with comparison of CBD-Whey and Whey only. Volunteers, who were Cannabis naïve, were given 8 samples, in a randomized order and were asked to fill a questionnaire relating to appearance, taste and smell of samples. Evaluations were performed by 6 volunteers for each of the 8 samples (four beverages with CBD-Whey and four beverages with Whey only.)

[2] abbreviates: THC in plasma, intravenously, 5 mg/kg single dose.
The mark [3] stands for this setting: male, Sprague-Dawley, rat, plasma, iv, 5 mg/kg.

In the case of `C=C(C)[C@@H]1CCC(C)=C[C@H]1c1c(O)cc(CCCCC)cc1O` [CBD, cannabidiol], the dissolution in beverages entry in data set [1] is “crystalline CBD was visible”.
With `CCCCCc1cc(O)c2c(c1)OC(C)(C)[C@@H]1CCC(C)=C[C@@H]21` [IV, tetrahydrocannabinol], under setting [2], the “AUC0−∞/D” value was 121 kg·ng·h/mL/mg, the CL/F turned out to be 137.2 mL/min/kg and the Cmax/D is 202 kg·ng/mL/mg. The F (THC, intravenously, 5 mg/kg single dose (reference)) is on record as 100%. Besides, under setting [3], the AUC(0-inf) was 607 ng·h/mL, the AUC(0-t) was 575 ng·h/mL, the peak level (Cmax) was 1010 ng/mL and the Tmax turned out to be 5 min. The half-life (male, Sprague-Dawley, rat, plasma, iv, 5 mg/kg, t1/2, THC in plasma, intravenously, 5 mg/kg single dose) is 10.8 h. Where the note is “male, Sprague-Dawley, rat, plasma, iv, 5 mg/kg, terminal t1/2, after IV administration, analysis that included the 24 hr time point”, this compound had a half-life of roughly 10 h.

The record behind these values is patent US12220438B2, “Protein based cannabis compositions” (IZUN PHARMACEUTICALS CORP., priority 2019, dated 2025).
